The text below walks through data of patent US7048951B1, “Systems and methods for topical treatment with nitric oxide” (Nioxx, LLC, priority 1998, dated 2006).

Read-outs that look alike come from different tables or passages of the source.

A short description of series [1]: pKa of acids. The class given is physicochemical.
For series [2] the following is noted: cited from earlier work.
The mark [3] stands for this setting: preservative concentration 0.18% in carbomer gel (propylparaben 0.05% listed in next row).
Setting [4] is: preservative concentration 0.01% in carbomer gel.
[5] abbreviates: preservative concentration 0.1% in carbomer gel.

Take `O=C(O)/C=C\C(=O)O` [Maleic acid]: the “acid strength relative to nitrous acid” value in series [1] is “about 30 times”.
As to `COC(=O)c1ccc(O)cc1` [Methylparaben], in series [2] (setting [3]), the Appearance entry is reported as “Clear” and the Compatible entry is listed as “Yes”.
Consider `O=C([O-])c1ccccc1.[Na+]` [Sodium Benzoate], for which the Appearance result was “Clear” in series [2] (setting [4]) and “Cloudy” in series [2] (setting [5]). Further, the figures for the Compatible result in series [2] (setting [4]) and in series [2] (setting [5]) were “Yes” and “No”, respectively.
Consider `C[CH2][Hg][S]c1ccccc1C(=O)[O-].[Na+]` [Thiomersal], for which, in series [2] (setting [4]), the Appearance entry was “Clear” and the Compatible entry was “Yes”. In series [2] (setting [5]), the Appearance result is listed as “Clear” and the Compatible entry is reported as “Yes”.
For the compound Benzalkonium Chloride, in series [2] (setting [4]), the Appearance result is recorded as “Clear” and the Compatible entry is given as “Yes”. In series [2] (setting [5]), the Appearance result is listed as “Cloudy” and the Compatible result is “No”.
